EC50 data for twelve compounds are collected here from patent US20230108906A1, “SUBSTITUTED BICYCLIC AND TRICYCLIC UREAS AND AMIDES, ANALOGUES THEREOF, AND METHODS USING SAME” (Arbutus Biopharma Corporation, priority 2019, published 2023).

pEC50: −log10 of the molar value.

The test system of the first experiment is HBV rcDNA in HepDE19 cells. In words: HepDE19 assay with bDNA quantitation of HBV rcDNA. It is filed as cell-based, hepatitis B virus (HBV). Conditions: Hepatitis B virus, HepDE19, 168 h, inhibition of rcDNA formation in HepDE19 cells (HepG2 derived), Tet-free medium, 7 day incubation, Quantigene 2.0 bDNA readout, top concentration 25 μM; read-out: DE-19bDNA EC50. As to the method:
HepDE19 Assay with bDNA Quantitation of HBV rcDNA:
HepDE19 cell culture system is a HepG2 (human hepatocarcinoma) derived cell line that supports HBV DNA replication and cccDNA formation in a tetracycline (Tet)-regulated manner and produces HBV rcDNA and a detectable reporter molecule dependent on the production and maintenance of cccDNA (Guo, et al., 2007, J. Virol. 81:12472-12484).
HepDE19 (50,000 cells/well) were plated in 96-well collagen-coated tissue-culture treated microtiter plates in DMEM/F12 medium supplemented with 10% fetal bovine serum, 1% penicillin-streptomycin and 1 μg/mL tetracycline and incubated in a humidified incubator at 37° C. and 5% CO2 overnight. Next day, the cells were switched to fresh medium without tetracycline and incubated for 4 hours at 37° C. and 5% CO2. The cells were treated with fresh Tet-free medium with compounds at concentrations starting at 25 μM and a serial, […], 8-point, titration series in duplicate. The final DMSO concentration in the assay was 0.5%. The plates were incubated for 7 days in a humidified incubator at 37° C. and 5% CO2. Following a 7 day-incubation, the level of rcDNA present in the inhibitor-treated wells was measured using a Quantigene 2.0 bDNA assay kit (Affymetrix, Santa Clara, Calif.) with HBV specific custom probe set and manufacturers instructions. Concurrently, the effect of compounds on cell viability was assessed using replicate plates, plated at a density of 5,000 cells/well and incubated for 4 days, to determine the ATP content as a measure of cell viability using the cell-titer glo reagent (CTG; Promega Corporation, Madison, Wis.) as per manufacturer's instructions. The plates were read using a Victor luminescence plate reader (PerkinElmer Model 1420 Multilabel counter) and the relative luminescence units (RLU) data generated from each well was calculated as % inhibition of the untreated control wells and analyzed using XL-Fit module in Microsoft Excel to determine EC50 and EC90 (bDNA) and CC50 (CTG) values using a 4-parameter curve fitting algorithm.
Representative compounds of the disclosure were tested for their abilities to inhibit formation of relaxed circular DNA (rcDNA) in a HepDE19 assay, as described elsewhere herein.
In the case of `CN(C(=O)N1Cc2ccc(F)cc2C1)[C@@H]1COCc2[nH]c(=O)c3cc(F)c(F)cc3c21` [Compound 221, (S)—N-(8,9-Difluoro-6-oxo-1,4,5,6-tetrahydro-2H-pyrano[3,4-c]isoquinolin-1-yl)-5-fluoro-N-methylisoindoline-2-carboxamide], the pEC50 is 5.23. Same read-out and setting: under `CN(C(=O)Nc1ccc(F)c(F)c1)C1CCCc2[nH]c(=O)c3cc(F)ccc3c21` (stereo not drawn) [Compound 32, 3-(3,4-Difluorophenyl)-1-(8-fluoro-6-oxo-1,2,3,4,5,6-hexahydrophenanthridin-1-yl)-1-methylurea] stands 6.96.

In the case of `CN(C(=O)Nc1ccc(F)c(Cl)c1)C1COCc2[nH]c(=O)c3cscc3c21` (stereo not drawn) [Compound 105, 3-(3-Chloro-4-fluorophenyl)-1-methyl-1-(4-oxo-4,5,8,9-tetrahydro-6H-pyrano[3,4-b]thieno[3,4-d]pyridin-9-yl)urea], the pEC50 is 7.70.

Regarding `CN(C(=O)Nc1ccc(F)c(Cl)c1)C1CCCc2[nH]c(=O)c3cc(F)ccc3c21` (stereo not drawn) [Compound 9, 3-(3-Chloro-4-fluorophenyl)-1-(8-fluoro-6-oxo-1,2,3,4,5,6-hexahydrophenanthridin-1-yl)-1-methylurea], the pEC50 was 7.52. On the same count and under the same terms, then `CCN(C(=O)Nc1ccc(F)c(C)c1)C1COCc2[nH]c(=O)c3cc(Cl)ccc3c21` (stereo not drawn) [Compound 59, 1-(8-Chloro-6-oxo-1,4,5,6-tetrahydro-2H-pyrano[3,4-c]isoquinolin-1-yl)-1-ethyl-3-(4-fluoro-3-methylphenyl)urea], with 7.70. The same measure, in the same setting: under `Cc1cc(NC(=O)N(C)C2COCc3[nH]c(=O)c4ccc(F)cc4c32)ccc1F` (stereo not drawn) [Compound 75, 3-(4-Fluoro-3-methylphenyl)-1-(9-fluoro-6-oxo-1,4,5,6-tetrahydro-2H-pyrano[3,4-c]isoquinolin-1-yl)-1-methylurea] stands 7.70.

Staying with this experiment, now noted: Hepatitis B virus, HepDE19, 168 h, read-out: DE-19bDNA EC50 (uM), inhibition of rcDNA formation in HepDE19 cells (HepG2 derived), Tet-free medium, 7 day incubation, Quantigene 2.0 bDNA readout, top concentration 25 μM.
With `COc1ccc(NC(=O)N(C)[C@@H]2COCc3[nH]c(=O)c4cc(F)c(F)cc4c32)cc1Cl` [Compound 147, (S)-3-(3-Chloro-4-methoxyphenyl)-1-(8,9-difluoro-6-oxo-1,4,5,6-tetrahydro-2H-pyrano[3,4-c]isoquinolin-1-yl)-1-methylurea], the EC50 came to 0.14 µM.

Regarding `CN(C(=O)N1Cc2ccc(C(F)(F)F)cc2C1)[C@@H]1COCc2[nH]c(=O)c3cc(F)c(F)cc3c21` [Compound 230, (S)—N-(8,9-Difluoro-6-oxo-1,4,5,6-tetrahydro-2H-pyrano[3,4-c]isoquinolin-1-yl)-N-methyl-5-(trifluoromethyl)isoindoline-2-carboxamide], the EC50 stood at 24 µM.

Still in this experiment, the particulars now being: inhibition of rcDNA formation in HepDE19 cells (HepG2 derived), Tet-free medium, 7 day incubation, Quantigene 2.0 bDNA readout, top concentration 25 μM; read-out: DE-19bDNA EC50.
For the compound `CN(C(=O)Nc1ccc(F)c(Cl)c1)C1COCc2[nH]c(=O)c3c(c21)CCOC3` (single isomer, unassigned) [Compound 91, 3-(3-Chloro-4-fluorophenyl)-1-methyl-1-(6-oxo-1,2,4,5,6,7,9,10-octahydrodipyrano[3,4-b:4′,3′-d]pyridin-1-yl)urea], the pEC50 is 4.96.

As for `CN(C(=O)Nc1ccc(F)c(Cl)c1)C1CN(CCO)Cc2[nH]c(=O)c3cc(F)c(F)cc3c21` (single isomer, unassigned) [Compound 179, 3-(3-Chloro-4-fluorophenyl)-1-(8,9-difluoro-3-(2-hydroxyethyl)-6-oxo-1,2,3,4,5,6-hexahydrobenzo[c][1,7]naphthyridin-1-yl)-1-methylurea], the negative-log EC50 (pEC50) is 5.14.

With `CN(C(=O)Nc1ccc(F)c(F)c1)C1COCc2[nH]c(=O)c3c(c21)COCC3` (single isomer, unassigned) [Compound 86, 3-(3,4-Difluorophenyl)-1-methyl-1-(5-oxo-1,3,4,5,6,7,9,10-octahydrodipyrano[3,4-b:3′,4′-d]pyridin-10-yl)urea], the pEC50 is ≤ 4.60.

`CN(C(=O)Nc1ccc(F)c(Cl)c1)C1CSCc2[nH]c(=O)c3cc(F)c(F)cc3c21` (single isomer, unassigned) [Compound 188, 3-(3-Chloro-4-fluorophenyl)-1-(8,9-difluoro-6-oxo-1,4,5,6-tetrahydro-2H-thiopyrano[3,4-c]isoquinolin-1-yl)-1-methylurea]: the pEC50 was 7.70.

By pEC50 is commonly meant −log10 of the EC50, conventionally taken in molar units.
